# Reference: ChEMBL document CHEMBL1201862, “PubChem BioAssay data set” (2004)
# The source made the active and inactive calls.
# Assays:
# [1] = growth suppression of PTEN-null colon cells, dose response, cell-based, HCT116 PTEN knockout (AID 1047); assay type: functional;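 note: HCT116 colon tumor cells with PTEN knocked out; cells exposed to compound for 60 hours before readout; potency for loss of cell viability measured by luminescence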
# [2] = growth suppression of beta-catenin-knockout colon cells, dose response, cell-based, HCT116, human colon tumor (AID 1045); assay type: functional;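 note: HCT116 colon tumor cells with beta catenin knocked out; cells exposed to compound for 60 hours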
# [3] = Luminescence Cell-Based Dose Retest to Confirm Inhibitors of Cancer Stem Cells. [Related pubchem assays (depositor defined):AID2717, AID2721]; assay type: functional; conditions: Homo sapiens
# [4] = target: T1, Microphthalmia-associated transcription factor (Homo sapiens, UniProt O75030); test: TRPM1 promoter luciferase signal decrease, dose response, MITF inhibitor project, cell-based, SK-MEL-5, cherry-picked, set 3 (AID 493073); assay type: functional
# T1 sequence (O75030 whole entry): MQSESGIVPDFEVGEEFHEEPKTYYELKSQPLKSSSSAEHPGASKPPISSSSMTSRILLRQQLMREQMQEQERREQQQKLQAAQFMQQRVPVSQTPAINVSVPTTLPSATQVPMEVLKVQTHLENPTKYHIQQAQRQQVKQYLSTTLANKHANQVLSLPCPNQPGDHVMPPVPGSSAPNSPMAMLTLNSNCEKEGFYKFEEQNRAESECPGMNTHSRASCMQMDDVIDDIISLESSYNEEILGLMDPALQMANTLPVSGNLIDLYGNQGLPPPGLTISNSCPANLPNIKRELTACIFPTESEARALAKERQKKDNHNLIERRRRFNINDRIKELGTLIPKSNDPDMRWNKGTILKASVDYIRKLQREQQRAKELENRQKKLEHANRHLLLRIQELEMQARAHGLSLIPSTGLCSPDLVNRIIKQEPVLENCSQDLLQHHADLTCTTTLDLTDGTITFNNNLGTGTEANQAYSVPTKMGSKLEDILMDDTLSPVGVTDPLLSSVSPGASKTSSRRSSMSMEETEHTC
# [5] = target: T2, X-box-binding protein 1 (Homo sapiens, UniProt P17861); assay type: functional, Cricetulus griseus;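 note: confirmatory dose-response counter-screen serving a CHOP assay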
# T2 sequence (P17861 whole entry): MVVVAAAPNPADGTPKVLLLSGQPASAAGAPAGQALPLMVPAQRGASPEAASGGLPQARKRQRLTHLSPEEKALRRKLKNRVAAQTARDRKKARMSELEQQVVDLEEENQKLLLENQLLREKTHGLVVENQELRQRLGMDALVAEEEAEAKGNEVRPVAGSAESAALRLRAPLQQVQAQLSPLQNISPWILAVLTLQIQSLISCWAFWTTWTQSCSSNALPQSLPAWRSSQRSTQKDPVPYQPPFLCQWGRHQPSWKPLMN
# [6] = Shn3 3'UTR reporter inhibitors, dose response, cell-based, Clone20 osteoblasts, firefly luciferase, cherry-picked (AID 624132); assay type: functional;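 note: firefly luciferase luminescence from reporter carrying the Shn3 3'UTR in osteoblasts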
# [7] = HepG2 cell cytotoxicity, dose response, cytotoxicity control for Shn3 inhibitor project, CellTiter-Glo, cherry-picked (AID 624134); assay type: functional, cell-based
# [8] = control 3'UTR Renilla luciferase suppression, dose response, counter-screen for Shn3 inhibitor project, cell-based, Clone20-Shn3RL, cherry-picked (AID 624133); assay type: functional
# [9] = target: Glyceraldehyde-3-phosphate dehydrogenase (Homo sapiens, UniProt P04406)
# [10] = target: T3, Alkaline phosphatase, tissue-nonspecific isozyme (Homo sapiens, UniProt P05186); test: human TNAP enzyme inhibitors, SAR follow-up, biochemical, luminescent, dose response (AID 1056)
# T3 sequence (P05186 whole entry): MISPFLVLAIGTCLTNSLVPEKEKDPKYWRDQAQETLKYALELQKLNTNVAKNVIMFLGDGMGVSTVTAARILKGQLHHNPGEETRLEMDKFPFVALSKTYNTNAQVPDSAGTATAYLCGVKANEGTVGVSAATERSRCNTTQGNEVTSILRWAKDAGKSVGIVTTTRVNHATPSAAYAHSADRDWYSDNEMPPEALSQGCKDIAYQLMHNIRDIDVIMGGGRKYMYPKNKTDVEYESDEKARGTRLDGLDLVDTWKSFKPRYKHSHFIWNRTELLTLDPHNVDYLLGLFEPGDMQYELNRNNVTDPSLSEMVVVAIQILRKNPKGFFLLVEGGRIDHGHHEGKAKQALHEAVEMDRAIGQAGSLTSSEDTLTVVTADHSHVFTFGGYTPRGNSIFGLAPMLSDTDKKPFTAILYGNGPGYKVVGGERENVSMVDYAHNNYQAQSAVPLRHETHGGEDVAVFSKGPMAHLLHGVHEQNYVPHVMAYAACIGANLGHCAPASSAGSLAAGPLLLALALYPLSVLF
# [11] = target: T4, Lysine-specific demethylase 4C (Homo sapiens, UniProt Q9H3R0); test: GASC-1 (JMJD2C) histone demethylase inhibitors, dose response, biochemical, DELFIA europium, cherry-picked samples (AID 488835); assay type: functional
# T4 sequence (Q9H3R0 whole entry): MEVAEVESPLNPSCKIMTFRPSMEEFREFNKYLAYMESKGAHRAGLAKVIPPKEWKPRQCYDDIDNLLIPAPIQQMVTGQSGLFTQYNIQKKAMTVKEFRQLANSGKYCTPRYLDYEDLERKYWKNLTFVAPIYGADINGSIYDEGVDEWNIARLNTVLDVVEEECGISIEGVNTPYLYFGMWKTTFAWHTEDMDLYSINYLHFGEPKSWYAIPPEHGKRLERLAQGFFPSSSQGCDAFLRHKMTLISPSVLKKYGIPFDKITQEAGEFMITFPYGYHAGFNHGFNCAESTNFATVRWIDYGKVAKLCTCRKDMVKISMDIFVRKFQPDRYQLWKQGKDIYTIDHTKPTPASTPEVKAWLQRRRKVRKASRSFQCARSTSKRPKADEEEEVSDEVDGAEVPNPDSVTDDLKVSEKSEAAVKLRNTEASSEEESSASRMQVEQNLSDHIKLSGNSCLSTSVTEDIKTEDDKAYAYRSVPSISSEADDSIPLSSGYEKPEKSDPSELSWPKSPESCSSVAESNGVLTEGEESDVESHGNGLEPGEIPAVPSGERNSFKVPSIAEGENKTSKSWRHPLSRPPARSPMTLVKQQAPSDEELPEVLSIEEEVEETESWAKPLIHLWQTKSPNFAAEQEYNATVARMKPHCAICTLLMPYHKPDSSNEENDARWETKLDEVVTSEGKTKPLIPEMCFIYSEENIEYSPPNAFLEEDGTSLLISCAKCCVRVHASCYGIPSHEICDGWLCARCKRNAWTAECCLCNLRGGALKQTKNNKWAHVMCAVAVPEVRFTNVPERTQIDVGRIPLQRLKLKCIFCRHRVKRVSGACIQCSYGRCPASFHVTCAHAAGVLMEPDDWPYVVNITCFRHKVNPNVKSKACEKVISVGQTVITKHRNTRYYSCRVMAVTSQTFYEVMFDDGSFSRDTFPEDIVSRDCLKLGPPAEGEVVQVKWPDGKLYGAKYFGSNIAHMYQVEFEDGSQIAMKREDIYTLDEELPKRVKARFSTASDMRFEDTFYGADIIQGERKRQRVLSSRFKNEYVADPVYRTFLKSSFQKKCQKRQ
# [12] = Counterscreen for IDE inhibitors: Luminescence-based cell-based high throughput dose response assay to identify compounds that are cytotoxic to HEK cells. [Related pubchem assays: 434962 (Primary screen (IDE inhibitors in singlicate)), 449730 (Counterscreen (Cytotoxicity in triplicate)), 435028 (Confirmation (IDE inhibitors in triplicate)) …; assay type: functional; conditions: HEK293
# [13] = target: T5, Insulin-degrading enzyme (Homo sapiens, UniProt P14735); test: Dose Response: Fluorescence polarization-based cell-based high throughput dose response assay for inhibitors of insulin-degrading enzyme (IDE). [Related pubchem assays: 434962 (Primary screen (IDE inhibitors in singlicate)), 449730 (Counterscreen (Cytotoxicity in triplicate)), 435028 (Confirmation (IDE inhibitors in triplicate)), 434984 (Summary …; assay type: functional
# T5 sequence (P14735 whole entry): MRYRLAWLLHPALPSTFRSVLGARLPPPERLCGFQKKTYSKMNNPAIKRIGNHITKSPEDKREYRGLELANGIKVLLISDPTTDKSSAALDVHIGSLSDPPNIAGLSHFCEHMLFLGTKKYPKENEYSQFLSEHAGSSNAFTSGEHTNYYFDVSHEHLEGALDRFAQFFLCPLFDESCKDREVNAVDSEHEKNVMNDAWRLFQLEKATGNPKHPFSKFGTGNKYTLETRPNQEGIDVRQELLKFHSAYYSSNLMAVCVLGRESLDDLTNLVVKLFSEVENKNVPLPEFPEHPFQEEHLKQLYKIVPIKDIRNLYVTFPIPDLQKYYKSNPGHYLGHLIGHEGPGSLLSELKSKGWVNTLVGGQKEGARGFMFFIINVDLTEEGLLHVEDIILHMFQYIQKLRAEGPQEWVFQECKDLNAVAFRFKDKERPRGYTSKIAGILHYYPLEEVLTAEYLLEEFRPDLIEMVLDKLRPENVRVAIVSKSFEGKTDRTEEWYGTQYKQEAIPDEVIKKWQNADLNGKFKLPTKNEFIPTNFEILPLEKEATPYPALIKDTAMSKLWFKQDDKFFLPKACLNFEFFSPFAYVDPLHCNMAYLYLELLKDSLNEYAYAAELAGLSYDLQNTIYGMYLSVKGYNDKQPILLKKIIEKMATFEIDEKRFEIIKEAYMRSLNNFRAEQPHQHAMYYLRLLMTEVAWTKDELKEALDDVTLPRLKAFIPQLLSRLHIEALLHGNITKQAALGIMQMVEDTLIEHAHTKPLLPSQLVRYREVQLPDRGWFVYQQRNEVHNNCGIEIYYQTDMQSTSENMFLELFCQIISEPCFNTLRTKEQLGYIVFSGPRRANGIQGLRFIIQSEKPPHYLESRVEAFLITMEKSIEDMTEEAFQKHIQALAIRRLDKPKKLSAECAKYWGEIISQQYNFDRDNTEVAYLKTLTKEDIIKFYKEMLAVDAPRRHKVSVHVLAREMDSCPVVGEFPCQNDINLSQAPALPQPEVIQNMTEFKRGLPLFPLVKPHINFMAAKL
# [14] = cells; assay type: functional, cell-based
# [15] = cells; assay type: functional, cell-based; remark: listed apart in the source
# [16] = target: T6, Short transient receptor potential channel 4 (Mus musculus, UniProt Q9QUQ5); test: mouse TRPC4 channel activators, dose response, cell-based, HEK293 TRPC4/mu-opioid, Fluo-4 calcium (AID 434937); assay type: functional
# T6 sequence (Q9QUQ5 whole entry): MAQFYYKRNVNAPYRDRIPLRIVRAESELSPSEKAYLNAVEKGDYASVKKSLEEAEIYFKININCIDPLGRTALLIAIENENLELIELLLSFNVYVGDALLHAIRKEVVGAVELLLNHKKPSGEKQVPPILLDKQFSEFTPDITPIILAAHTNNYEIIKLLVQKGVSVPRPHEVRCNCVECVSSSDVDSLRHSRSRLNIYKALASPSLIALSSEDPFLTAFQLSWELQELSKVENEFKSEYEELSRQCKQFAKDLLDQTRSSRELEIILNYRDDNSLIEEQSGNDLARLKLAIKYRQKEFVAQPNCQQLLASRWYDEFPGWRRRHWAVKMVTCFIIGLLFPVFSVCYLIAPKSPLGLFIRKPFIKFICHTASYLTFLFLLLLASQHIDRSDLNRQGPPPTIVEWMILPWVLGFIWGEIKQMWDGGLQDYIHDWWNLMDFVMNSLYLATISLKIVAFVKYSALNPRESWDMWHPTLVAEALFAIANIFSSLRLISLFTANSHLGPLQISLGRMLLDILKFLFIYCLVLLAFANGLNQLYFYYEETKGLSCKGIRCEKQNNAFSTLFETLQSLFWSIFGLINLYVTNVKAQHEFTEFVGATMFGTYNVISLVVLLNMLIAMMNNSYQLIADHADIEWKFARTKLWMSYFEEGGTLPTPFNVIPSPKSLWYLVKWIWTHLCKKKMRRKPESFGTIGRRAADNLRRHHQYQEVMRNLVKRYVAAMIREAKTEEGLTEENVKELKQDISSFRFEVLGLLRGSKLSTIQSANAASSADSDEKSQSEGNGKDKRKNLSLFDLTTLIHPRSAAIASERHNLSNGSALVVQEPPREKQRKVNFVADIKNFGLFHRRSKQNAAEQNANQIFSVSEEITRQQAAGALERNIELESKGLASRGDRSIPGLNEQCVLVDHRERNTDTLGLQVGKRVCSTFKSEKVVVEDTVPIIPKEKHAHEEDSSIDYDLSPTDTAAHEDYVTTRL
# [17] = target: SUMO-activating enzyme (Homo sapiens, UniProt Q9UBT2); test: SUMOylation inhibitor hit validation, confirmation, SUMOylation inhibitor project, biochemical, AlphaScreen (AID 2018); assay type: functional
# [18] = insulin promoter down-regulators in MIN6 cells, imaging, high-content screening, mouse beta cells (AID 1628); assay type: functional
# [19] = cytotoxicity in MIN6 insulinoma cells, dose response, cytotoxicity control, cell-based, mouse insulinoma (AID 2122); assay type: functional;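 note: confirmatory high-throughput counterscreen run to flag cytotoxic compounds; mouse MIN-6 beta cells carrying an insulin promoter eGFP reporter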
# [20] = target: Intestinal-type alkaline phosphatase (Homo sapiens, UniProt P09923); test: human intestinal alkaline phosphatase activators, dose response, biochemical, luminescence, uHTS hits (AID 463120); assay type: functional
# Intestinal-type alkaline phosphatase, sequence (P09923 whole entry): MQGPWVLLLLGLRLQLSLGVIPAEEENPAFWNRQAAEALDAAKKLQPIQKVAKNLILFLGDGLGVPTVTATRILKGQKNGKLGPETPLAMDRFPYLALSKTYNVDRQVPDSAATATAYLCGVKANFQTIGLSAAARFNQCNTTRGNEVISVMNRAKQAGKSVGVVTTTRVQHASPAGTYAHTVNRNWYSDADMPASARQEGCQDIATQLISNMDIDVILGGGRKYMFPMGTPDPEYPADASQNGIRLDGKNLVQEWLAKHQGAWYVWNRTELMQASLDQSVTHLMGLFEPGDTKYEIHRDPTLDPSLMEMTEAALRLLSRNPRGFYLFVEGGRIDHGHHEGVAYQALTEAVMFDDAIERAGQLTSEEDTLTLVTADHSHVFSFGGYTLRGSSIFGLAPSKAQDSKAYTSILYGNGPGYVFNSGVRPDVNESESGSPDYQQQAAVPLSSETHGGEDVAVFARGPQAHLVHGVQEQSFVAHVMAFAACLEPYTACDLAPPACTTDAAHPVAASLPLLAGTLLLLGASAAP
# SUMO-activating enzyme, sequence (Q9UBE0 whole entry): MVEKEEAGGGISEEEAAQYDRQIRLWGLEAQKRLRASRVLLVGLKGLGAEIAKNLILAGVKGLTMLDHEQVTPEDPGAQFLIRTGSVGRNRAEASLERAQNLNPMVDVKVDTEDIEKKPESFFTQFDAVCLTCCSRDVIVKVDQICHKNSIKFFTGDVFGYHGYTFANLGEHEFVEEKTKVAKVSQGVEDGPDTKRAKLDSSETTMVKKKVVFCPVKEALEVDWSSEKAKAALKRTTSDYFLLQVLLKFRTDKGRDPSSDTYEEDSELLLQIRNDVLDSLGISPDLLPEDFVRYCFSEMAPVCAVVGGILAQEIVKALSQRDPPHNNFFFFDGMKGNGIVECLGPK
# SUMO-activating enzyme, sequence (Q9UBT2 whole entry): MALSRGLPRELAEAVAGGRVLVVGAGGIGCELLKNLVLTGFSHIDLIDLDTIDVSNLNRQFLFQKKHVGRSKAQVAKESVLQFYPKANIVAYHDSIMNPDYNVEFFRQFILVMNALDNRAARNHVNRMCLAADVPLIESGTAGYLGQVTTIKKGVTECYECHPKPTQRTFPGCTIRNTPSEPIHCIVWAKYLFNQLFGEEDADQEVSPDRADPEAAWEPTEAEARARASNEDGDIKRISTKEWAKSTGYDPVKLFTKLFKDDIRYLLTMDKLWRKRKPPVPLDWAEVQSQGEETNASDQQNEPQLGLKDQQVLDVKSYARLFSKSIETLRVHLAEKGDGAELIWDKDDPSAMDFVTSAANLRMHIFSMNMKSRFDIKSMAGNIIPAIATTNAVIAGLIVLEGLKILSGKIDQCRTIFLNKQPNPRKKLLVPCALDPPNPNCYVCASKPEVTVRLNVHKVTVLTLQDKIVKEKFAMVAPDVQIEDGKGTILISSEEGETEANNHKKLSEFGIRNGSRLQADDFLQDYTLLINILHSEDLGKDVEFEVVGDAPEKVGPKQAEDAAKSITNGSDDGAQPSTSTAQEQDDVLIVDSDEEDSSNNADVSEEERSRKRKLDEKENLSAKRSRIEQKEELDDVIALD
# Glyceraldehyde-3-phosphate dehydrogenase, sequence (P04406 whole entry): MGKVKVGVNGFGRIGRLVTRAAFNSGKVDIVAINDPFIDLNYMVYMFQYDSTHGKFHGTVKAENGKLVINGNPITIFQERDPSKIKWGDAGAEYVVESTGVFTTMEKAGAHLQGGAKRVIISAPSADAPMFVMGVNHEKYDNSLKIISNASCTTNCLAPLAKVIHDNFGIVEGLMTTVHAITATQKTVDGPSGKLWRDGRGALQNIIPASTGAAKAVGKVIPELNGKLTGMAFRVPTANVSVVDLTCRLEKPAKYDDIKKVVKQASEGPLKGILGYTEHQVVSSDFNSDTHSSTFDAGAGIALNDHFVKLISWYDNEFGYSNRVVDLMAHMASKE
compound,measurement,setting,value
CC(=O)OCCCNc1cc(Sc2ccc(Cl)cc2)c2nonc2c1[N+](=O)[O-],EC50,[1],13.1 µM (active)
same,EC50,[2],11.3 µM (active)
same,AC50,[3],4.57 µM (active)
same,AC50,[4],10.9 µM (active)
same,Absolute IC50 (XBP1),[5],10 µM
same,AC50,[6],1.14 µM (active)
same,AC50,[7],43.7 µM (active)
same,AC50,[8],7.64 µM (active)
O=C1c2ccccc2C(=O)N1c1nnc(CCc2ccccc2)[nH]1,IC50,[9],> 100 µM (not active)
same,IC50,[10],66.5 µM (active)
Cc1cccc(N2C(=O)NC(=O)/C(=C\c3cnc(-c4ccccc4)nc3)C2=O)c1,AC50,[11],15.2 µM (active)
COc1cc(/C=C2\SC(=S)N(NC(C)=O)C2=O)ccc1OC(=O)c1ccco1,IC50,[12],> 55.7 µM (not active)
same,IC50,[13],5.78 µM (active)
O=C(C1CCCN(Cc2ccccc2F)C1)N1CCc2ccccc2C1 (stereo not given),EC50,[14],> 350 µM (not active)
same,EC50,[15],> 350 µM (not active)
same,EC50,[16],0.299 µM (active)
CNCC(=O)N1CCN(c2ncc(C(F)(F)F)cc2Cl)CC1,EC50,[16],0.105 µM (active)
Cc1ccc(C(C(=O)NC2CCCCC2)N(C(=O)Cc2c[nH]c3ccccc23)c2ccccc2C)o1 (stereo not given),Absolute IC50 (XBP1),[5],10 µM
N#C/C(=C(/O)c1ccc(S(=O)(=O)N(CCCl)CCCl)cc1)c1nc2ccccc2[nH]1,IC50,[17],73.8 µM (active)
O=C(O)CC12CC3CC(C1)CC(n1ncc(NCc4ccccc4Cl)c(Cl)c1=O)(C3)C2,IC50,[12],> 55.7 µM (not active)
same,IC50,[13],9.59 µM (active)
CC(C)C(=O)Nc1cccc(C(=O)N2CCCCC2C)c1 (stereo not given),IC50,[18],2.43 µM (active)
same,IC50,[19],1.99 µM (active)
Cc1ccc(O)c(N/C=C/C(=O)c2ccc(F)cc2)c1,EC50,[20],> 100 µM (inactive)
CCCC(=O)Nc1ccc2oc(-c3cncc(Br)c3)nc2c1,IC50,[17],90.5 µM (active)
